Consider two compounds from patent publication US12589064B2, “Trolox-peptide conjugate and use thereof” (Caregen Co., Ltd., priority 2019, dated 2026).

Assay [1] deals with Human hair follicle dermal papilla cells (HFDPC). Description: Cell proliferation of HFDPC (MTT). The settings on record: 0.5 μM, 5 μM or 50 μM, serum-free medium, 3 days, FIG. 4. Type of assay: cell-based. As to the method: (§1) Human hair follicle dermal papilla cells (HFDPC) and HaCaT which is human keratinocyte were dispensed by 2×10^3 in each well of a 96-well plate and cultivated overnight. The medium of the cultivated cells was replaced with a serum-free medium, and treatment with Trolox-peptide conjugates of 0.5 μM, 5 μM or 50 μM were performed, and additional cultivation was performed for 3 days. Then, in order to confirm the proliferation of the cells, 4 mg/ml of 3-(4,5-dimethylthiazol-2-yl)-2,5-diphenyltetrazolium bromide (MTT) was put to the wells by 100 μl each and reacted for 4 hours. Formazan thus produced was treated with DMSO and dissolved, and light absorbance at 560 nm was measured using a microplate reader. In this case, as a positive control, 1 μM of IGF-1 or EGF, which is known as a growth factor promoting the proliferation of HFDPC and HaCaT cells was used, and as a comparison group, single compounds of Trolox and a peptide having the amino acid sequences of SEQ ID NO: 1 to SEQ ID NO: 3, having the same amounts as the Trolox-peptide conjugate of the present invention, were used.

For a further assay, the system named is HaCaT human keratinocyte. Description: Cell proliferation of HaCaT human keratinocyte (MTT). Type of assay: cell-based. As to conditions: 0.5 μM, 5 μM or 50 μM, serum-free medium, 3 days, FIG. 5. As to the method: as §1
A further assay concerns Bcl-2. The assay is described as follows: Expression of Bcl-2 protein involving cell death in HFDPC (western blot). As to conditions: 50 μM, 24 hours; FIG. 10. The assay is classed as cell-based, human. As to the method: (§2) HFDPCs were dispensed by 3×10^5 in each well of a 6-well plate and cultivated overnight. The medium of the cultivated cells was replaced with a serum-free medium, treatment with Trolox of 50 μM, a Trolox-peptide (SEQ ID NO: 2) conjugate of 50 μM, or a Trolox-peptide (SEQ ID NO: 3) conjugate of 50 μM, was performed for each, and additional cultivation was performed for 24 hours. Then, protein expression change was confirmed by performing western blot using a specific antibody to Bcl-2 and Bax proteins (Santacruz biotechnology, USA).
Background: Immunoblotting shows a protein as a band on a membrane.

For the next assay, the system named is Bax. The assay is described as follows: Expression of Bax protein involving cell death in HFDPC (western blot). Type of assay: cell-based, human. The settings on record: 50 μM, 24 hours; FIG. 10. As for the experimental part: as §2
For a further assay, the system named is P-smad 1/5/8 protein. The assay is described as follows: BMP2 cell signal transduction: P-smad 1/5/8 in HFDPC (western blot). The settings on record: 50 μM, 50 ng/μl BMP-2, 15 minutes; FIG. 13. The assay is classed as cell-based, human. As for the experimental part:
HFDPCs were dispensed by 3×10^5 in each well of a 6-well plate and cultivated overnight. The medium of the cultivated cells was replaced with a serum-free medium, and the experiments below were performed.
The HFDPC cells were treated with 50 ng/μl of BMP-2 and a Trolox-peptide (SEQ ID NO: 1) conjugate of 5 μM or 50 μM, and additionally cultivated for 15 minutes. Then, western blot was performed using a specific […] to a P-smad 1/5/8 protein which is a subprotein of which expression is controlled by BMP2 cell signal transduction (Cell signaling, USA), and the expression change of a protein was confirmed.

Where no end group is shown, it is not given here.

Turning to `Cc1c(C)c2c(c(C)c1O)CCC(C)(C(=O)O)O2` (centres unmarked) [Trolox, 6-hydroxy-2,5,7,8-tetramethylchromane-2-carboxylic acid], the “cell proliferation of HFDPC” value in assay [1] was “rarely showed cell proliferation effects”. Also, the “cell proliferation of HaCaT” value in the assay on HaCaT human keratinocyte was “rarely showed cell proliferation effects”. Moreover, the “expression of Bcl-2” value with Bcl-2 is given as “no change”. Also, the “expression of Bax” value in the assay on Bax is “increased”.

As to “Trolox-peptide (SEQ ID NO: 1) conjugate: Trolox chemically bonded to the peptide Glu-Leu-Ile-Glu-His-Gly-Gly-Gly-Arg-Pro-Ala-Asp (SEQ ID NO: 1) (ELIEHGGGRPAD; not fully specified (N-terminus); printed as Glu-Leu-Ile-Glu-His-Gly-Gly-Gly-Arg-Pro-Ala-Asp; also: Trolox chemically bonded, site not given here)”, the “level of expression of the P-smad 1/5/8 protein increased by the treatment with BMP2” value with P-smad 1/5/8 protein is given as “reduced”.
